Tests used:
[1] = tested on: HBV viral production in AD38 cells; assay: Viral load production in AD38 cells by quantitative PCR of the HBV core sequence in supernatant; assay type: cell-based; details: Hepatitis B virus, 144 h; 10 μM compound, 6 days at 37° C., viral load in supernatant compared against DMSO control wells; read-out: AD38 Viral Load (CpAM/DMSO %) at 10 μM
Description: (§1) Example 56: Assay Measuring Activity of Compounds on Viral Production in and on Viability of AD38 Cells
(§2) AD38 cells were then re-suspended with 10 mL of Treatment Medium and counted. Wells of a collagen coated 96-well NUNC microtiter plate were seeded at 50,000/well in 180 μL of Treatment Medium, and 20 μL of in treatment media with either 10% DMSO (Control) or a 10× solution of compound in 10% DMSO was added. Plates were incubated for 6 days at 37° C.
Viral load production was assayed by quantitative PCR of the core sequence. Briefly, 5 μL of clarified supematant was added to a PCR reaction mixture that contained forward primers HBV-f 5′-CTGTGCCTTGGGTGGCTTT-3′, Reverse primers HBV-r 5′-[…]-3′ and Fluorescent TaqMan™ Probes HBV-probe 5′-FAM/AGCTCCAAA/ZEN/[…]/3IABkFQ-3′ in Quanta Biosciences PerfeCTa® qPCR Toughmix®, and was subsequently on an Applied Biosystems VIIA7 in a final volume of 20 μL. The PCR mixture was incubated at 45° C. for 5 minutes, then 95° C. for 10 min, followed by 40 cycles of 10 seconds at 95° C. and 20 seconds at 60° C. Viral load was quantitated against known standards by using ViiA™ 7 Software. Viral load in the supematant from wells with treated cells were compared against viral load in supernatant from DMSO control wells (≥3 per plate).

[2] = tested on: AD38 cells; assay: Viability of AD38 cells (Promega CellTiter-Glo) at the end of compound treatment; assay type: cell-based; details: 10 μM compound, 6 days, luminescence normalized against DMSO control wells (controls being 100%)
Description: as §1, §2
At the end of compound treatment period cell viability was assessed using a Promega CellTiter-Glo protocol. All supernatant was removed the previously treated 96-well microtiter plate, and 50 μL Tetracycline-free treatment medium (DMEM/F12 (1:1), lx Pen/step (cat#: 30-002-CL, Mediatech, Inc), with 2% FBS, Tet-system approved (cat#: 631106, Clontech), and 1% DMSO was added back to each well. Another 50 μL of CellTiter-Glo reagent solution (Promega, G7573) was then added at room temperature and the contents mixed for 2 minutes on an orbital shaker to induce cell lysis. This was followed by incubation at room temperature for 10 minutes to stabilize the luminescent signal. The luminescence was recorded for 0.2 seconds per well on a Tecan multimode platereader (Infinite M1000 pro). The luminescent signal from each well was normalized against that of untreated (DMSO) control wells. All results were reported percent viability (with controls being 100%).

Compound	activity at 10 µM [1] [%]	AD38 Viability Normalized Result (CPAM/DMSO %) at 10 μM [2] [%]
O=C(Nc1nncs1)c1ccc2c(c1)NC(=O)c1cc(F)ccc1S2 [Compound 1442]	65	99
O=C(NCCc1cnco1)c1cc2c(cc1F)Sc1ccccc1C(=O)N2 [Compound 1557]	54	86
Cc1c(C(=O)NCc2cccnc2)ccc2c1NC(=O)c1ccccc1S2 [Compound 1515]	2	82
CCN1c2ccc(C(=O)NCc3cncnc3)cc2NC(=O)c2ccccc21 [Compound 1533]	2	105
O=C(NCCc1ccccn1)c1ccc2c(c1)NC(=O)c1cccc(F)c1S2 [Compound 1383]	1	87
CN(C)S(=O)(=O)c1ccc(CCNC(=O)c2ccc3c(c2)NC(=O)c2cc(F)ccc2S3)cc1 [Compound 1384]	4	79
Cc1ccc(CCNC(=O)c2ccc3c(c2)NC(=O)c2ccccc2S3)cc1 [Compound 1184]	1	0
O=C(NCc1ccc(OC(F)(F)F)cc1)c1ccc2c(c1)NC(=O)c1ccccc1S2 [Compound 1162]	61	99
Cc1ncsc1CNC(=O)c1ccc2c(c1)NC(=O)c1ccccc1S2 [Compound 1600]	12	108
Cc1cc(C(=O)NCCC2CCCCC2)cc2c1Sc1ccccc1C(=O)N2 [Compound 1286]	36	114
O=C(NCc1cnco1)c1ccc2c(c1)NC(=O)c1ccccc1S2 [Compound 1264]	8	104
O=C(NCc1cncnc1)c1ccc2c(c1)NC(=O)c1ccccc1N2Cc1ccccc1 [Compound 1482]	46	98
CCN1c2ccc(C(=O)NCCc3ccccn3)cc2NC(=O)c2ccccc21 [Compound 1522]	1	82
O=C(NCCC1CCCO1)c1ccc2c(c1)NC(=O)c1ccccc1S2 (centres unmarked) [Compound 1209]	1	102
O=C(NCCc1ccccn1)c1ccc2c(c1)NC(=O)c1ccccc1[S+]2[O-] (centres unmarked) [Compound 1374]	1	98
O=C1Nc2c(cc(F)c(C(=O)NCCc3cncnc3)c2F)Sc2ccccc21 [Compound 1562]	25	89
Cc1nnc(CCNC(=O)c2ccc3c(c2)NC(=O)c2ccccc2S3)[nH]1 [Compound 1583]	41	121
COc1ccc(CCNC(=O)c2ccc3c(c2)NC(=O)c2ccccc2S3)cc1OC [Compound 1125]	20	108
O=C(O)c1ccc2c(c1)Sc1ccc(C(=O)NCCC3CCCCC3)cc1NC2=O [Compound 1282, 8-((2-cyclohexylethyl)carbamoyl)-11-oxo-10, 11-dihydrodibenzo [b, f] [1,4] thiazepine-3-carboxylic acid]	102	105
O=C(NCCc1ccc(-c2cncnc2)cc1)c1ccc2c(c1)NC(=O)c1cc(F)ccc1S2 [Compound 1320]	43	93
O=C(CCC1CCCCC1)Nc1ccc2c(c1)NC(=O)c1ccccc1S2 [Compound 1207]	24	99
O=C(NCc1cncs1)c1ccc2c(c1)NC(=O)c1ccccc1N2Cc1ccccc1 [Compound 1510]	62	82

Reference: patent US10183936B2, “Hepatitis B core protein allosteric modulators” (priority 2014, dated 2019)
